Reference: patent publication US12486298B2, “Fucosyltransferase specific inhibition using fucose mimetics” (THE FLORIDA INTERNATIONAL UNIVERSITY BOARD OF TRUSTEES, priority 2020, dated 2025)

Columns and labels:
[1] = target: T1, fucosyltransferase VII (FTVII) (Homo sapiens, UniProt Q11130); experiment: FTVII exofucosylation of mesenchymal stem cells (MSC), sLe^x by flow cytometry; format: cell-based; settings: MSCs
T1 sequence (Q11130 37-342 limits assumed): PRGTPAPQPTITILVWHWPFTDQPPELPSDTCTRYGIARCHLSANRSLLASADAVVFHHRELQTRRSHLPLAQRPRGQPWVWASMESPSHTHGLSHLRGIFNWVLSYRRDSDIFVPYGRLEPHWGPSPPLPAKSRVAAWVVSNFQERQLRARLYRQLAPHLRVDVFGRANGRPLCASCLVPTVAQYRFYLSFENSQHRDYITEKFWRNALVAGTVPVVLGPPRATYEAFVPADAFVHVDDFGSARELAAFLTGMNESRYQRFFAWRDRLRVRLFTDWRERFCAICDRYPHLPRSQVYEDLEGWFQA
Method: A Canto II (BD Biosciences) flow cytometer was utilized for flow cytometry and the data acquired was analyzed using FlowJo Software (Treestar). Cells were stained using antibodies specific to sLe^X (Alexa-Fluor 488 Mouse Anti-Human CD15s (BD Biosciences)), or Le^X (APC anti-human CD15 (SSEA-1) Antibody (BioLegend)).
Cells of the RPMI-8402 cell line and MSC cell line were treated with either 0.3 ug of fucosyltransferase VI (FTVI), 2.7 ug of fucosyltransferase VII (FTVII), 1.0 ug fucosyltransferase IX (FTIX) or buffer-only at 37° C. for 60 minutes. All reactions contained at 1×10^6 cells/30 ul in HBSS with 10 mM Hepes, 0.1% Human Serum Albumin, and 1.0 mM GDP fucose (GDP-Fuc) (Carbosynth) and the appropriate fucosytransferase. Then, mimetic 1 was added to each of the treatment groups in molar equivalents with respect to GDP-Fuc with each of the fucosytransferases. […]
Mimetic 1 (FIG. 1) was tested as an inhibitor of FT-mediated exofucosylation on these cells and the extent of fucosylation was monitored using antibodies that detect the creation of the relevant fucosylated epitopes, i.e., sLe^x or Le^x. […]

[2] = test system: E-selectin bearing HUVEC; experiment: Parallel plate flow chamber: exofucosylated RPMI-8402 cells on TNFα-stimulated HUVEC under shear; format: cell-based, human; settings: for number of interacting RPMI-8402 cells on HUVEC: shear 0.5-8 dynes/cm^2
Method: Human umbilical vein endothelial cells (HUVEC, Lonza) were cultured in Endothelial Cell Growth Media (R&D Systems) in Bioflux microfluidic chambers that had been previously coated with 250 ug/ml fibronectin (BD Biosciences). Then 4 hours prior to rolling assay, cells were activated with 40 ng/ml TNFα (R&D Systems). Different cell subsets, based on exofucoslylation/mimetic conditions, were then infused into the chamber at a concentration of 2×10^6/ml and shear stress was applied from 0.5-8 dynes/cm^2. Then RPMI-8402 subsets were loaded into chambers containing monolayers of E-selectin bearing HUVECs with an initial shear rate of 0.5 dyne/cm^2, with stepwise increments in the shear rate up to 8 dynes/cm^2. The number of tethering/interacting RPMI-8402 cells on HUVEC were quantified at each shear rate and averaged across three different fields of view.
As sLe^x is the primary ligand for E-selectin which is induced on endothelial cells by inflammatory cytokine, e.g., TNFα the biological impacts of mimetic 1's inhibition of sLe^x binding to E-selectin under hemodynamic shear was evaluated. To this end, RPMI-8402 cells were left untreated or exofucosylated with 1.0 mM GDP-Fuc, 1.0 mM GDP-Fuc and 2.0 mM mimetic 1 or preincubated with FTVI and 2.0 mM mimetic 1 for 45 min followed by addition of 1.0 mM GDP-Fuc for 1 h and the presence of sLe^x determined by flow cytometry (FIGS. 6A and 6B). The RPMI-8402 cells treated as outlined above were then loaded in a parallel plate flow chamber seeded with monolayers of human umbilical vein endothelial cells (HUVEC) that had been stimulated with TNFα (FIG. 6C). The RPMI cells were introduced under defined fluid shear conditions to determine inhibition.

[3] = target: T2, human fucose-binding DC-SIGN lectin (Homo sapiens, UniProt Q9NNX6); experiment: Recognition by DC-SIGN lectin
T2 sequence (Q9NNX6 1-404): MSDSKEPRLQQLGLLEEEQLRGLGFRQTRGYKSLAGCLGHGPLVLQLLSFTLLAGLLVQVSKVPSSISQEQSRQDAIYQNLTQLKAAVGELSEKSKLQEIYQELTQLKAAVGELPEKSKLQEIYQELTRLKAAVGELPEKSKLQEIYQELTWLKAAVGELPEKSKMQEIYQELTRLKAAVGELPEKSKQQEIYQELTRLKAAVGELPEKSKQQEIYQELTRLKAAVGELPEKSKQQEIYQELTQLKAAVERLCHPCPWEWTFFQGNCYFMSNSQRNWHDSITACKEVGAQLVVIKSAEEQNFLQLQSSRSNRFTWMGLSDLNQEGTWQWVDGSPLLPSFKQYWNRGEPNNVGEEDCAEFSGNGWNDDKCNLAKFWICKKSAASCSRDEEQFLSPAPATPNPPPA

- inhibition of FTVII sLe^x production ([1]; 1.0 mM GDP-Fuc with 1.0 mM or 2.0 mM mimetic 1): inhibition was clear
- level of FTVII inhibition in pre-incubation reactions ([1]; pre-incubation with 2.0 mM mimetic 1, then 1.0 mM GDP-Fuc): stronger
- recognition by DC-SIGN lectin [3]: not recognized
Compound: CC1OC2Oc3ccc(CC(=O)O)cc3SC2C(O)C1O (stereo not drawn) [mimetic 1]
- number of interacting RPMI-8402 cells on HUVEC ([2]; exofucosylated with FTVI, 1.0 mM GDP-Fuc and 2.0 mM mimetic 1): reduced the number of interacting cells
- ability of cells to adhere to HUVEC ([2]; physiologically relevant shear conditions): reduced the ability of cells to adhere to HUVEC
- number of interacting RPMI-8402 cells on HUVEC ([2]; preincubation with FTVI and 2.0 mM mimetic 1 for 45 min, then 1.0 mM GDP-Fuc for 1 h): reduced the number of interacting cells
